{
  "source": "ChEMBL document CHEMBL5465560",
  "about": "“Selectivity Literature for EUbOPEN Chemogenomic Library” (2024)",
  "key": {"[1]": {"biological_target": "Muscarinic acetylcholine receptor M3 (Homo sapiens, UniProt P20309)", "sequence (P20309 whole entry)": "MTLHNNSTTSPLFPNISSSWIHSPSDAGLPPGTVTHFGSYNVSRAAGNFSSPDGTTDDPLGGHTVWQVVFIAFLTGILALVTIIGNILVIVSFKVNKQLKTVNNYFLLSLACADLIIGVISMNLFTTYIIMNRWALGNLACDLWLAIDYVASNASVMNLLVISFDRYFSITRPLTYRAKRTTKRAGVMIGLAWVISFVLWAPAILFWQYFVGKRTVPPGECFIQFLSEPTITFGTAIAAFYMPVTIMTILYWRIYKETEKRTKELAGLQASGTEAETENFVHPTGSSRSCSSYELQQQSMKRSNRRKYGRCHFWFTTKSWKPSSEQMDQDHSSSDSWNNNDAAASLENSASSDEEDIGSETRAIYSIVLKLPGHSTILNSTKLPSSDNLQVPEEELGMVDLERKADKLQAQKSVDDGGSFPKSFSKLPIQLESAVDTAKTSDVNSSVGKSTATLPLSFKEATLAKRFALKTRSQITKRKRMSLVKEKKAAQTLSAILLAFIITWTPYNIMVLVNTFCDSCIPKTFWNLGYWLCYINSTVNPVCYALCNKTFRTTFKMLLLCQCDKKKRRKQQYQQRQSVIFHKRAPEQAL", "assay": "Selectivity interaction (Muscarinic M3 receptor assay, human recombinant ) EUB0000877a CHRM3"}, "[2]": {"biological_target": "T1, NUAK family SNF1-like kinase 1 (Homo sapiens) (UniProt O60285)", "T1 sequence (whole entry)": "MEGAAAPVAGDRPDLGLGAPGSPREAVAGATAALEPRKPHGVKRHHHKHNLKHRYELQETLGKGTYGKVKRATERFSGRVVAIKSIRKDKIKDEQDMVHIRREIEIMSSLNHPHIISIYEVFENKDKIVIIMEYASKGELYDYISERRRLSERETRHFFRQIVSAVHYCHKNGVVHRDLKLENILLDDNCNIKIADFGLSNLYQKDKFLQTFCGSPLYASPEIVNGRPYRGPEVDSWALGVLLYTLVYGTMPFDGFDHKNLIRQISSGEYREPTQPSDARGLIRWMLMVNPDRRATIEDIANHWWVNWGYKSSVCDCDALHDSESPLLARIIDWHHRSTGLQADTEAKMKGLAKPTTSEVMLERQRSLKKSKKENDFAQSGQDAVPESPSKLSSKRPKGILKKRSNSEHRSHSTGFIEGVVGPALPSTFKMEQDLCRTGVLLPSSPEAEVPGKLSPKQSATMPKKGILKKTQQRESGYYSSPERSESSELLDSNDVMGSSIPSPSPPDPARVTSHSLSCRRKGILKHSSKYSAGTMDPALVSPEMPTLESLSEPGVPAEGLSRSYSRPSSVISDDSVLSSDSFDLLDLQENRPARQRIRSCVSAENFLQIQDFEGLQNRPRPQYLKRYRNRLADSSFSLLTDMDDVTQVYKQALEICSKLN", "assay": "Selectivity interaction (Kinase panel (literature)) EUB0001199aCl NUAK1", "details": "at 1 µM"}, "[3]": {"biological_target": "Cyclin-dependent kinase 2 (Homo sapiens, UniProt P24941)", "assay": "Selectivity interaction (ActivX KiNativ screen (kinase selectivity in THP-1 cell lysates)) EUB0000639a CDK2", "assay_type": "subcellular", "details": "lysate, at 0.04 µM"}, "[4]": {"biological_target": "T2, Serine/threonine-protein kinase D2 (Homo sapiens) (UniProt Q9BZL6)", "T2 sequence (whole entry)": "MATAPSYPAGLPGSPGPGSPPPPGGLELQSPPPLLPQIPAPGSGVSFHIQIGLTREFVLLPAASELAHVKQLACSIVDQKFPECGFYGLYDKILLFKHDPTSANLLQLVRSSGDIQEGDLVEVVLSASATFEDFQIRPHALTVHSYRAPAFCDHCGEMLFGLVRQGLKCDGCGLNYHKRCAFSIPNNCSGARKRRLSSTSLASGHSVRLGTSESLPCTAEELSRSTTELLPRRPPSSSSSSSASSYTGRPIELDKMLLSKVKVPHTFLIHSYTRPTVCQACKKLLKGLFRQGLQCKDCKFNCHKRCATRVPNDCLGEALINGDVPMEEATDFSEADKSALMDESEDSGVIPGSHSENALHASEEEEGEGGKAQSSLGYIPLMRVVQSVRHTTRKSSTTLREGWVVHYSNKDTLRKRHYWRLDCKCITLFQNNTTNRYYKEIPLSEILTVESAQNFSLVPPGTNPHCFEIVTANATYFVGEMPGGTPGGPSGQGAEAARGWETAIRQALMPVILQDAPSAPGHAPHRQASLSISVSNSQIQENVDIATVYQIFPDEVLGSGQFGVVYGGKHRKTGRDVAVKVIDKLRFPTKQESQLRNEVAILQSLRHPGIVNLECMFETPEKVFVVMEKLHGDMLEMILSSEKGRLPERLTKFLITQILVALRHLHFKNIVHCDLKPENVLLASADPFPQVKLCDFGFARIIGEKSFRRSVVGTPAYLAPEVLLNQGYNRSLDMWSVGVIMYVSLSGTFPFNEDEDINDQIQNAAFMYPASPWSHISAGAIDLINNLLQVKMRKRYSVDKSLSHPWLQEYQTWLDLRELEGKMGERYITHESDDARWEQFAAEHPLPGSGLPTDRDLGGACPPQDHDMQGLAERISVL", "assay": "Selectivity interaction (ActivX KiNativ screen (kinase selectivity in THP-1 cell lysates)) EUB0000639a PRKD2", "assay_type": "subcellular", "details": "lysate, at 5 µM"}, "[5]": {"biological_target": "Serine/threonine-protein kinase MRCK alpha (Homo sapiens) (UniProt Q5VT25)", "sequence (Q5VT25 whole entry)": "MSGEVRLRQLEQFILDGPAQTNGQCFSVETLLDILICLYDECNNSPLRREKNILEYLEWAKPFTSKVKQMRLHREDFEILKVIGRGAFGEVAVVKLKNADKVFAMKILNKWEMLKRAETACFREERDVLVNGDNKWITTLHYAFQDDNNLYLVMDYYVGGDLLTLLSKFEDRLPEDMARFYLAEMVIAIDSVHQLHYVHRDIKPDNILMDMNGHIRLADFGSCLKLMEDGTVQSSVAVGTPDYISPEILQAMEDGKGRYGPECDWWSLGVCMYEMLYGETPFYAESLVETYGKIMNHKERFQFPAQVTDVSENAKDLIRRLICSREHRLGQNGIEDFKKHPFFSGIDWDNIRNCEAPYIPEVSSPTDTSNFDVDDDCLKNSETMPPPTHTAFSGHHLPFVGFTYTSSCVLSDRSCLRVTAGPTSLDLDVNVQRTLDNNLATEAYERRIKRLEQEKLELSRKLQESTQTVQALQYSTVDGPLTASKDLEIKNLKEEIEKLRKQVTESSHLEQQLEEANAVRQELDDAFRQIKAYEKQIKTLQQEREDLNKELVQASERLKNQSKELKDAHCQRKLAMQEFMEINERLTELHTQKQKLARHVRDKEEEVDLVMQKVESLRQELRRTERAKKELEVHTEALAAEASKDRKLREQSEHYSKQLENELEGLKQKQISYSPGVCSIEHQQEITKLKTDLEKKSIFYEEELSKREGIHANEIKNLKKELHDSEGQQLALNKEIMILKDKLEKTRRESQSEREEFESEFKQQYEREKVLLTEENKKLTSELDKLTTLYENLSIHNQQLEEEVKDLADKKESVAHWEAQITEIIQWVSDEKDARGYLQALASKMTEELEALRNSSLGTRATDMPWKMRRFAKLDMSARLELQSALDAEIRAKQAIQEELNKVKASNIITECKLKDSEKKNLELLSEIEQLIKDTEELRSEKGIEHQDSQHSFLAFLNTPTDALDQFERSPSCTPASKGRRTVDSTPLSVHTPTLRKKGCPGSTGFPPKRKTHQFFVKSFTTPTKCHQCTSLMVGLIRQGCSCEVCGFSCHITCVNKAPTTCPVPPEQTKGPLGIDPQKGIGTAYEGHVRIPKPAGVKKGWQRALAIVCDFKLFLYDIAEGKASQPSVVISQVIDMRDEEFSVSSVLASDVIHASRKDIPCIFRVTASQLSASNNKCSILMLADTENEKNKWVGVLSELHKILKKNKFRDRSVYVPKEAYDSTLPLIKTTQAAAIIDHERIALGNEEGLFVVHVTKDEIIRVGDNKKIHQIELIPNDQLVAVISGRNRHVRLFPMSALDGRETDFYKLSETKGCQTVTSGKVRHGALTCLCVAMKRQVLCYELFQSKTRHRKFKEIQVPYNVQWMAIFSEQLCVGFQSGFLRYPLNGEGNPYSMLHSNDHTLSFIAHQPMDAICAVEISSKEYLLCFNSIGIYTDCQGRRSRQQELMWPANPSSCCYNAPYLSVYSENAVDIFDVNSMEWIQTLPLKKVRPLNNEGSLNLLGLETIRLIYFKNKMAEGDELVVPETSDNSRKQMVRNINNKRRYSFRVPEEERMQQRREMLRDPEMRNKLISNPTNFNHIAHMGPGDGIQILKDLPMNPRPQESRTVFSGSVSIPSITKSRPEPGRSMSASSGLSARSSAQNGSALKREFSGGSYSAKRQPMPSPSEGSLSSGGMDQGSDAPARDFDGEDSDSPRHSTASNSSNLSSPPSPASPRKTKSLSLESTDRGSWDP", "assay": "Selectivity interaction (KinomeScan (DiscoverX)) EUB0000695a CDC42BPA", "details": "at 100 nM"}, "[6]": {"biological_target": "Serine/threonine-protein kinase 38 (Homo sapiens) (UniProt Q15208)", "sequence (Q15208 2-465 limits assumed)": "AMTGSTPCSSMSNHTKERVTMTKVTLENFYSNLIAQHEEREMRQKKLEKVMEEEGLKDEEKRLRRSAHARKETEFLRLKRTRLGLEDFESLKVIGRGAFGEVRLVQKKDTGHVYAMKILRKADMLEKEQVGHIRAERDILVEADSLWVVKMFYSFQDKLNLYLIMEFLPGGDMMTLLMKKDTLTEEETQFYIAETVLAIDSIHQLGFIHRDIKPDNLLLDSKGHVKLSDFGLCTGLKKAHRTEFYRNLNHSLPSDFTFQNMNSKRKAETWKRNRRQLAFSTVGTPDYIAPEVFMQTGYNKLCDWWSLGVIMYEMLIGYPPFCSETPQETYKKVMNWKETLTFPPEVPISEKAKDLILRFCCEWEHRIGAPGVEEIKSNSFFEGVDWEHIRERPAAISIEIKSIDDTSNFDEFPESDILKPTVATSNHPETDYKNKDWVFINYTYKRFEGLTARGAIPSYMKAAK", "assay": "Selectivity interaction (KinomeScan (DiscoverX)) EUB0000045b STK38"}, "[7]": {"biological_target": "Tyrosine-protein kinase JAK1 (Homo sapiens, UniProt P23458)", "sequence (P23458 whole entry)": "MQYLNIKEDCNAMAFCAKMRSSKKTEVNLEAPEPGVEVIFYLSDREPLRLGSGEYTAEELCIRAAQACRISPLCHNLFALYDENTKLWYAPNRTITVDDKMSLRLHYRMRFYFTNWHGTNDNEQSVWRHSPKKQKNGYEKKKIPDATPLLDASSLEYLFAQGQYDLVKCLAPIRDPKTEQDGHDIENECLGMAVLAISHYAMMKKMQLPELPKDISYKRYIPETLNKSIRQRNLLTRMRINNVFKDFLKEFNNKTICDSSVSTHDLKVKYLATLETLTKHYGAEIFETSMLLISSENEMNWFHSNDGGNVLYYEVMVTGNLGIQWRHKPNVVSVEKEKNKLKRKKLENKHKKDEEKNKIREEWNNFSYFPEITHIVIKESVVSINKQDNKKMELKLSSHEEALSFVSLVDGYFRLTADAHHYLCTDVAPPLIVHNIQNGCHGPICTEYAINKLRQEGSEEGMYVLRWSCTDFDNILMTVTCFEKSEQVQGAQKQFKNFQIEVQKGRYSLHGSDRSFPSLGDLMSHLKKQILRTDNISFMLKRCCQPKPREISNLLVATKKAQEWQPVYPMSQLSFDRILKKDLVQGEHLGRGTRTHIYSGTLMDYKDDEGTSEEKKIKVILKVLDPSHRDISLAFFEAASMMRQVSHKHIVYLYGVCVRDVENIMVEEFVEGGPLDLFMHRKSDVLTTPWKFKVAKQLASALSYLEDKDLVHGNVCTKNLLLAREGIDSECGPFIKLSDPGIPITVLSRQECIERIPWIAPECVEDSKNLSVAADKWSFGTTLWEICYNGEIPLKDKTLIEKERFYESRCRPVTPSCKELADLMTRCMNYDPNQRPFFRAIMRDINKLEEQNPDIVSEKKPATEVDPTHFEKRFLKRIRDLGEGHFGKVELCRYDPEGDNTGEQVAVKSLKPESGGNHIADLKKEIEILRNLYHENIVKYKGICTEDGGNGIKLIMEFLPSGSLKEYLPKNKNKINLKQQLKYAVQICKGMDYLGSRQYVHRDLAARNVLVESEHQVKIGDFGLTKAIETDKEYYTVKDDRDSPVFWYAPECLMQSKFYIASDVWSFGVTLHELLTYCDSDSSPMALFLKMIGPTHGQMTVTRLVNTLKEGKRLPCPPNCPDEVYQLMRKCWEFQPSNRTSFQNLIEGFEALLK", "assay": "Selectivity interaction (KinomeScan (DiscoverX)) EUB0000229b JAK1", "details": "at 10 µM"}, "[8]": {"biological_target": "Calcium/calmodulin-dependent protein kinase kinase 1 (Homo sapiens) (UniProt Q8N5S9)", "sequence (Q8N5S9 whole entry, looked up)": "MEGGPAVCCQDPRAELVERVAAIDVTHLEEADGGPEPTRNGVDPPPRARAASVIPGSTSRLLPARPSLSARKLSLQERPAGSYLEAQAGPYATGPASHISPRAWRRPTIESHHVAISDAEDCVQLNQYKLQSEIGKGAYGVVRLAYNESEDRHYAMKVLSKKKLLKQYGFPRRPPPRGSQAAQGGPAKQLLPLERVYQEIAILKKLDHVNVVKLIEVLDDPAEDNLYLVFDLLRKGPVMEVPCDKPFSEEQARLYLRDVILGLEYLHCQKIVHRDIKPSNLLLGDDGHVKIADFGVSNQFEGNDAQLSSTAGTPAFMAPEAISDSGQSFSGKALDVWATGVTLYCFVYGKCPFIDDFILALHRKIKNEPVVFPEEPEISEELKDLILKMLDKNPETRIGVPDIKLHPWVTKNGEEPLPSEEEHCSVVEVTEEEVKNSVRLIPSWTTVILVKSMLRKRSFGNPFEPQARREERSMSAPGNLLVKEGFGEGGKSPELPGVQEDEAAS", "assay": "Selectivity interaction (KinomeScan (DiscoverX)) EUB0000229b CAMKK1", "details": "at 10 µM"}},
  "data": [
    {"smiles": "CCC(=O)N1CC[C@H](Nc2ncnc3c2CN(c2cnc(OC)c(C(F)(F)F)c2)CC3)C1", "note": "[LENIOLISIB]", "values": [
      {"measurement": "IC50", "setting": "[1]", "result": "> 30", "unit": "µM"}
    ]},
    {"smiles": "CN1Cc2nccc(-c3cn(C)nc3-c3ccc(F)cc3)c2C1=O", "values": [
      {"measurement": "% of inhibition", "setting": "[2]", "result": -6, "unit": "%"}
    ]},
    {"smiles": "CC[C@@H]1[C@H](F)C(=O)N[C@@H]1COc1nccc2cc(C(N)=O)c(OC)cc12", "note": "[ZIMLOVISERTIB]", "values": [
      {"measurement": "% of inhibition", "setting": "[3]", "result": -1.2, "unit": "%"},
      {"measurement": "% of inhibition", "setting": "[4]", "result": 8.9, "unit": "%"}
    ]},
    {"smiles": "Cc1cc(F)c(C(=O)Nc2cccc(-c3nncn3C(C)C)n2)cc1-n1cnc(C2CC2)c1", "values": [
      {"measurement": "% of control", "setting": "[5]", "result": 100, "unit": "%"}
    ]},
    {"smiles": "C=CC(=O)Nc1cc(-n2c(=O)ccc3cnc4ccc(-c5ccc(NS(C)(=O)=O)cc5)cc4c32)ccc1C", "values": [
      {"measurement": "% of control", "setting": "[6]; at 1 µM", "result": 100, "unit": "%"},
      {"measurement": "% of control", "setting": "[6]; at 10 µM", "result": 100, "unit": "%"}
    ]},
    {"smiles": "COc1cc(N(C)c2ccnc3ccc(C(F)(F)F)cc23)cc(OC)c1OC", "values": [
      {"measurement": "% binding", "setting": "[7]", "result": 82, "unit": "%"},
      {"measurement": "% binding", "setting": "[8]", "result": 97, "unit": "%"}
    ]}
  ]
}
